Where “and” joins values, the source holds several entries; their conditions need not be identical. Equal entries are not always repeated. Toxic doses and inconclusive results are not listed.
Test system: L1210 leukemia ip in BDF1 mice, survival T/C
Experiment: NCI In Vivo Anticancer Drug Screen. Data for tumor model L1210 Leukemia (intraperitoneal) in B6D2F1 (BDF1) mice
Conditions: endpoint: mean survival time, higher = longer survival
Method in brief: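 Each compound was tested against a transplantable tumor grown in mice. The endpoint was survival, with treated animals benchmarked against vehicle controls as a simple ratio.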

[1] = dose: 100.0 mg/kg/injection, schedule: Q01DX001 (ip), vehicle: Klucel (hydroxypropylcellulose) (HPC)
[2] = dose: 100.0 mg/kg/injection, schedule: Q04DX003 (ip), vehicle: Klucel (hydroxypropylcellulose) (HPC)
[3] = dose: 200.0 mg/kg/injection, schedule: Q01DX001 (ip), vehicle: Klucel (hydroxypropylcellulose) (HPC)
[4] = dose: 400.0 mg/kg/injection, schedule: Q01DX001 (ip), vehicle: Klucel (hydroxypropylcellulose) (HPC)
[5] = dose: 100.0 mg/kg/injection, schedule: Q01DX001 (ip), vehicle: saline
[6] = dose: 200.0 mg/kg/injection, schedule: Q01DX001 (ip), vehicle: saline
[7] = dose: 400.0 mg/kg/injection, schedule: Q01DX001 (ip), vehicle: saline
[8] = dose: 100.0 mg/kg/injection, schedule: Q04DX003 (ip), vehicle: saline with Tween-80
[9] = dose: 200.0 mg/kg/injection, schedule: Q04DX003 (ip), vehicle: saline with Tween-80
[10] = dose: 400.0 mg/kg/injection, schedule: Q04DX003 (ip), vehicle: saline with Tween-80

COC(=O)c1ccc(OC(=O)Nc2cccc(Cl)c2C)cc1
T/C (dose: 100.0 mg/kg/injection, schedule: Q01DX009 (ip), vehicle: saline with Tween-80): 98 % of control and 100 % of control | T/C (dose: 100.0 mg/kg/injection, schedule: Q04DX002 (ip), vehicle: saline with Tween-80): 93 % of control and 91 % of control | T/C (dose: 200.0 mg/kg/injection, schedule: Q01DX009 (ip), vehicle: saline with Tween-80): 95 % of control and 91 % of control | T/C (dose: 200.0 mg/kg/injection, schedule: Q04DX002 (ip), vehicle: saline with Tween-80): 96 % of control and 87 % of control | T/C (dose: 400.0 mg/kg/injection, schedule: Q04DX002 (ip), vehicle: saline with Tween-80): 96 % of control and 97 % of control

CCOC(=O)c1[nH]c(C)c(/C=C/C(=O)O)c1C
T/C (dose: 25.0 mg/kg/injection, schedule: Q04DX003 (ip), vehicle: Klucel (hydroxypropylcellulose) (HPC)): 98 % of control | T/C (dose: 50.0 mg/kg/injection, schedule: Q04DX003 (ip), vehicle: Klucel (hydroxypropylcellulose) (HPC)): 95 % of control | T/C [1]: 106 % of control | T/C [2]: 101 % of control | T/C [3]: 98 % of control | T/C [4]: 98 % of control

Clc1ccc2c(n1)Sc1c(Cl)nc(Cl)nc1N2
T/C [1]: 95 % of control | T/C [3]: 108 % of control | T/C [4]: 93 % of control

CC(C)(CO)C(=O)O
T/C [5]: 101 % of control | T/C [6]: 98 % of control | T/C [7]: 106 % of control

CC1(Cl)CCC(C(C)(C)Cl)CC1 (stereo not drawn)
T/C [5]: 101 % of control | T/C [6]: 90 % of control | T/C [7]: 90 % of control

Cc1nc(N)[nH]c(=O)c1CCCS
T/C [5]: 104 % of control | T/C [6]: 101 % of control | T/C [7]: 102 % of control

O=C(Nc1ccc(NC(=O)c2ccc(C3=NCCCN3)cc2)cc1)c1ccc(C2=NCCCN2)cc1
T/C (dose: 0.93 mg/kg/injection, schedule: Q01DX Z (ip), vehicle: carboxymethylcellulose (CMC)): 106 % of control | T/C (dose: 1.87 mg/kg/injection, schedule: Q01DX Z (ip), vehicle: carboxymethylcellulose (CMC)): 100 % of control | T/C (dose: 3.75 mg/kg/injection, schedule: Q01DX Z (ip), vehicle: carboxymethylcellulose (CMC)): 108 % of control and 118 % of control | T/C (dose: 7.5 mg/kg/injection, schedule: Q01DX Z (ip), vehicle: carboxymethylcellulose (CMC)): 166 % of control and 191 % of control | T/C (dose: 15.0 mg/kg/injection, schedule: Q01DX Z (ip), vehicle: carboxymethylcellulose (CMC)): 200 % of control and 204 % of control | T/C (dose: 30.0 mg/kg/injection, schedule: Q01DX Z (ip), vehicle: carboxymethylcellulose (CMC)): 101 % of control | T/C (dose: 37.5 mg/kg/injection, schedule: Q01DX Z (oral), vehicle: carboxymethylcellulose (CMC)): 101 % of control | T/C (dose: 75.0 mg/kg/injection, schedule: Q01DX Z (oral), vehicle: carboxymethylcellulose (CMC)): 110 % of control | T/C (dose: 150.0 mg/kg/injection, schedule: Q01DX Z (oral), vehicle: carboxymethylcellulose (CMC)): 101 % of control | T/C (dose: 300.0 mg/kg/injection, schedule: Q01DX Z (oral), vehicle: carboxymethylcellulose (CMC)): 106 % of control

COc1cc(C(=O)N/N=C/c2ccc(N(C)C)cc2)cc(OC)c1OC
T/C [8]: 102 % of control | T/C [9]: 102 % of control | T/C [10]: 89 % of control

N/C(=N\O)c1ncn(C2OC(CO)C(O)C2O)c1N (stereo not drawn)
T/C (dose: 100.0 mg/kg/injection, schedule: Q01DX005 (ip), vehicle: saline): 103 % of control | T/C (dose: 200.0 mg/kg/injection, schedule: Q01DX005 (ip), vehicle: saline): 108 % of control

c1cncc(SC23CC4CC(CC(C4)C2)C3)c1
T/C (dose: 100.0 mg/kg/injection, schedule: Q01DX009 (ip), vehicle: Klucel (hydroxypropylcellulose) (HPC)): 106 % of control | T/C (dose: 200.0 mg/kg/injection, schedule: Q01DX009 (ip), vehicle: Klucel (hydroxypropylcellulose) (HPC)): 93 % of control | T/C (dose: 400.0 mg/kg/injection, schedule: Q01DX009 (ip), vehicle: Klucel (hydroxypropylcellulose) (HPC)): 106 % of control

c1ccc2c3c(ccc2c1)OCN(C12CC4CC(CC(C4)C1)C2)C3
T/C (dose: 100.0 mg/kg/injection, schedule: Q04DX003 (ip), vehicle: saline): 98 % of control | T/C (dose: 200.0 mg/kg/injection, schedule: Q04DX003 (ip), vehicle: saline): 105 % of control | T/C (dose: 400.0 mg/kg/injection, schedule: Q04DX003 (ip), vehicle: saline): 89 % of control

COc1cc(C)c2c([N+](=O)[O-])cc([N+](=O)[O-])c(OC)c2n1
T/C (dose: 75.0 mg/kg/injection, schedule: Q01DX009 (ip), vehicle: Klucel (hydroxypropylcellulose) (HPC)): 98 % of control | T/C [2]: 106 % of control | T/C (dose: 150.0 mg/kg/injection, schedule: Q01DX009 (ip), vehicle: Klucel (hydroxypropylcellulose) (HPC)): 101 % of control | T/C (dose: 200.0 mg/kg/injection, schedule: Q04DX003 (ip), vehicle: Klucel (hydroxypropylcellulose) (HPC)): 93 % of control | T/C (dose: 300.0 mg/kg/injection, schedule: Q01DX009 (ip), vehicle: Klucel (hydroxypropylcellulose) (HPC)): 95 % of control | T/C (dose: 400.0 mg/kg/injection, schedule: Q04DX003 (ip), vehicle: Klucel (hydroxypropylcellulose) (HPC)): 103 % of control

CC(=O)Nc1ccc(/C=C/c2cc[n+](C)cc2)cc1
T/C [8]: 97 % of control | T/C [9]: 111 % of control | T/C [10]: 102 % of control

— PubChem BioAssay AID248 (DTP/NCI, 2004)
